Where a name gives a salt, the structure may show the parent alone.

GTP-KRAS-G12D:SOS1, sequence (P01116-2 other isoform, or with tags, fused parts or gaps G12D): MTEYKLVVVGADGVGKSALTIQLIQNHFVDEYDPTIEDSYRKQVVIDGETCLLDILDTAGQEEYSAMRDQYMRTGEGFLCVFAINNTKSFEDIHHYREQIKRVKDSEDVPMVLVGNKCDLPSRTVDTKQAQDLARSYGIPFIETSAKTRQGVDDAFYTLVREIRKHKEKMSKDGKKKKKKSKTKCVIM

The test addresses GTP-KRAS-G12D:SOS1 (Homo sapiens (Human), UniProt P01116, G12D). The experiment in a line: GTP-KRAS-G12D:SOS1 binding inhibition. The protocol:
The IC50 of the compounds was fitted using a nonlinear regression equation with GraphPad Prism 8. The results are presented in Table 2: • Negative control: DMSO • Positive control: 100 μM BI-2852
The following nonlinear fitting formula was used to obtain the IC50 (half-maximal inhibitory concentration) of the compounds:
[formula] • X: logarithm of the compound concentration • Y: 665/615 Ratio
The IC50 is the midpoint of a concentration-inhibition curve. Low values mean higher potency, high ones lower potency. Take `Cc1cc(N)nc(-c2c(F)c3c4c(nc(OC[C@@]56CCCN5C[C@H](F)C6)nc4c2F)N2CC4CCC(N4)C2CO3)c1C(F)(F)F` (single isomer, unassigned) [10a′, (S or R)-6-((5aS,6S,9R)-1,3-Difluoro-13-(((2R,7aS)-2-fluorotetrahydro-1H-pyrrolizin-7a(5H)-yl)methoxy)-5a,6,7,8,9,10-hexahydro-5H-6,9-epiminoazepino[2′,1′:3,4][1,4]oxazepino[5,6,7-de]quinazolin-2-yl)-4-methyl-5-(trifluoromethyl)pyridin-2-amine]: the 50% inhibitory concentration (IC50) was 700 nM.

`Cc1cc(N)nc(-c2c(F)c3c4c(nc(OC[C@@]56CCCN5C[C@H](F)C6)nc4c2F)N2CC4CCC(N4)C2CO3)c1C(F)(F)F` (single isomer, unassigned) [10b′, (R or S)-6-((5aS,6S,9R)-1,3-difluoro-13-(((2R,7aS)-2-fluorotetrahydro-1H-pyrrolizin-7a(5H)-yl)methoxy)-5a,6,7,8,9,10-hexahydro-5H-6,9-epiminoazepino[2′,1′:3,4][1,4]oxazepino[5,6,7-de]quinazolin-2-yl)-4-methyl-5-(trifluoromethyl)pyridin-2-amine]: the IC50 came to 11.7 nM. Turning to `CCc1cccc2cc(O)cc(-c3c(F)c4c5c(nc(OC[C@@]67CCCN6C[C@H](F)C7)nc5c3F)N3CC5CCC(N5)C3CO4)c12` (single isomer, unassigned) [Compound 5b, (R or S)-4-((5aS,6S,9R)-1,3-difluoro-13-(((2R,7aS)-2-fluorotetrahydro-1H-pyrrolizin-7a(5H)-yl)methoxy)-5a,6,7,8,9,10-hexahydro-5H-6,9-epiminoazepino[2′,1′:3,4][1,4]oxazepino[5,6,7-de]quinazolin-2-yl)-5-ethylnaphthalen-2-ol dihydrochloride], the IC50 was 2800 nM. `O=C1CC2(CCc3c(nc(OC[C@@]45CCCN4C[C@H](F)C5)nc3N3C[C@H]4CC[C@@H](C3)N4)C2)c2cc(O)cc(Cl)c21` (single isomer, unassigned) [Compound 6a, (S or R)-4′-((1R,5S)-3,8-Diazabicyclo[3.2.1]octan-3-yl)-4-chloro-2′-(((2R,7aS)-2-fluorotetrahydro-1H-pyrrolizin-7a(5H)-yl)methoxy)-6-hydroxy-5′,8′-dihydro-6′H-spiro[indene-1,7′-quinazolin]-3 (2H)-one dihydrochloride]: the 50% inhibitory concentration (IC50) came to 314 nM. `Oc1cc(Cl)c2c(c1)C1(CC2)CCc2c(nc(OC[C@@]34CCCN3C[C@H](F)C4)nc2N2CC3CCC(C2)N3)C1F` (single isomer, unassigned) [Compound 8c, (1S or 1R,8′R or 8'S)-4′-((1R,5S)-3,8-diazabicyclo[3.2.1]octan-3-yl)-4-chloro-8′-fluoro-2′-(((2R,7aS)-2-fluorotetrahydro-1H-pyrrolizin-7a(5H)-yl)methoxy)-2,3,5′,8′-tetrahydro-6′H-spiro[indene-1,7′-quinazolin]-6-ol dihydrochloride]: the 50% inhibitory concentration (IC50) was determined as 4010 nM. Molecule `Oc1cc(-c2c(F)c3c4c(nc(OC[C@@]56CCCN5C[C@H](F)C6)nc4c2F)N2CC4CCC(N4)C2CO3)c2c(C3CC3)cccc2c1` (single isomer, unassigned) [Compound 11b, 5-cyclopropyl-4-((2S or 2R,5aS,6S,9R)-1,3-difluoro-13-(((2R,7aS)-2-fluorotetrahydro-1H-pyrrolizin-7a(5H)-yl)methoxy)-5a,6,7,8,9,10-hexahydro-5H-6,9-epiminoazepino[2′,1′:3,4][1,4]oxazepino[5,6,7-de]quinazolin-2-yl) naphthalen-2-ol dihydrochloride] had an IC50 of 18.5 nM. `COCCc1cccc2cc(O)cc(-c3c(F)c4c5c(nc(OC[C@@]67CCCN6C[C@H](F)C7)nc5c3F)N3CC5CCC(N5)C3CO4)c12` (single isomer, unassigned) [Compound 12b, 4-((2S or 2R,5aS,6S,9R)-1,3-difluoro-13-(((2R,7aS)-2-fluorotetrahydro-1H-pyrrolizin-7a(5H)-yl)methoxy)-5a,6,7,8,9,10-hexahydro-5H-6,9-epiminoazepino[2′,1′:3,4][1,4]oxazepino[5,6,7-de]quinazolin-2-yl)-5-(2-methoxyethyl) naphthalen-2-ol dihydrochloride] showed a half-maximal inhibitory concentration (IC50) of 21.3 nM. Regarding `CCc1cccc2cc(O)cc(-c3c(F)c4c5c(nc(OC[C@@]67CCCN6C[C@H](F)C7)nc5c3F)N3CC5CCC(N5)C3CCO4)c12` (single isomer, unassigned) [Compound 13b, 4-((2R or 2S, 6aS,7S,10R)-1,3-difluoro-14-(((2R,7aS)-2-fluorotetrahydro-1H-pyrrolizin-7a(5H)-yl)methoxy)-5,6,6a,7,8,9,10,11-octahydro-7,10-epiminoazepino[1′,2′: 5,6][1,5]oxazocino[4,3,2-de]quinazolin-2-yl)-5-ethylnaphthalen-2-ol dihydrochloride], the half-inhibitory concentration (IC50) worked out at 8930 nM. Then `Oc1cc(-c2c(F)c3c4c(nc(OC[C@@]56CCCN5C[C@H](F)C6)nc4c2F)N2CC4CCC(N4)C2CO3)c2c3c(ccc2c1)CCC3` (single isomer, unassigned) [Compound 14b, 9-((2S or 2R,5aS,6S,9R)-1,3-difluoro-13-(((2R,7aS)-2-fluorotetrahydro-1H-pyrrolizin-7a(5H)-yl)methoxy)-5a,6,7,8,9,10-hexahydro-5H-6,9-epiminoazepino[2′,1′:3,4][1,4]oxazepino[5,6,7-de]quinazolin-2-yl)-2,3-dihydro-1H-cyclopenta[a]naphthalen-7-ol dihydrochloride], with 15.3 nM; and `CCc1cccc2cc(O)cc(-c3c(F)c4c5c(nc(OC[C@@]67C[C@H](O)CN6C[C@H](F)C7)nc5c3F)N3CC5CCC(N5)C3CO4)c12` (single isomer, unassigned) [Compound 15a, (2S,6R,7aS)-7a-((((2R or 2S, 5aS,6S,9R)-2-(8-Ethyl-3-hydroxynaphthalen-1-yl)-1,3-difluoro-5a,6,7,8,9,10-hexahydro-5H-6,9-epiminoazepino[2′,1′:3,4][1,4]oxazepino[5,6,7-de]quinazolin-13-yl)oxy)methyl)-6-fluorohexahydro-1H-pyrrolizin-2-ol dihydrochloride], with 2670 nM. The molecule `CCc1cccc2cc(O)cc(-c3c(F)c4c5c(nc(OC[C@@]67C[C@H](O)CN6C[C@H](F)C7)nc5c3F)N3CC5CCC(N5)C3CO4)c12` (single isomer, unassigned) [Compound 15b, (2S,6R,7aS)-7a-((((2S or 2R,5aS,6S,9R)-2-(8-ethyl-3-hydroxynaphthalen-1-yl)-1,3-difluoro-5a,6,7,8,9,10-hexahydro-5H-6,9-epiminoazepino[2′,1′:3,4][1,4]oxazepino[5,6,7-de]quinazolin-13-yl)oxy)methyl)-6-fluorohexahydro-1H-pyrrolizin-2-ol dihydrochloride] showed an IC50 of 6.54 nM. On to `CCc1cccc2cc(O)cc(-c3c(F)c4c5c(nc(OC[C@]67C[C@@H](F)CN6C[C@@H](OC)C7)nc5c3F)N3CC5CCC(N5)C3CO4)c12` (single isomer, unassigned) [Compound 16b, 4-((2S or 2R,5aS,6S,9R)-1,3-difluoro-13-(((2R,6S,7aS)-2-fluoro-6-methoxytetrahydro-1H-pyrrolizin-7a(5H)-yl)methoxy)-5a,6,7,8,9,10-hexahydro-5H-6,9-epiminoazepino[2′, l′: 3,4][1,4]oxazepino[5,6,7-de]quinazolin-2-yl)-5-ethylnaphthalen-2-ol dihydrochloride], for which the 50% inhibitory concentration (IC50) is 7.55 nM.

The record behind these values is patent US20250197424A1, “QUINOLINE COMPOUND AND USE THEREOF” (SHANGHAI PHARMACEUTICALS HOLDING CO., LTD., priority 2022, published 2025).
